Source: patent US20250134820A1, “PHARMACEUTICAL COMPOSITIONS” (Novartis AG, priority 2021, published 2025)
Counter-ions that a name gives are not always drawn. Blank lines part the entries; values can stand above or below the molecule they belong to.

Tests used:
[1] = pHmax of the fumarate salt; type: physicochemical; conditions: estimated
Text: The pHmax of the fumarate salt is estimated to be about 4.5. An increase in pH above 4.5 may potentially increase the risk of disproportionation.

[2] = Hygroscopicity, water uptake by DVS; type: physicochemical
Procedure: (§1) Solubility of the fumarate in FaSSIF is 0.09 mg/mL and 0.21 mg/mL in FeSSIF. […] The maximum water uptake by DVS is less than 0.1% up to 95% RH at 25° C.

[3] = Solubility of Compound A fumarate at 25° C.; type: physicochemical; conditions: for solubility at 24 h: thermodynamic from solid
Procedure: as §1

[4] = Disproportionation (XRPD) of ASAP batches; type: physicochemical
Procedure: The compatibility of Compound A fumarate was further evaluated in 21 days ASAP study involving three different formulation principles, wet granulation, dry blending and roller compaction. The drug load selected for study was 5% w/w, translating to 6.40% w/w of fumarate salt. The XRPD of the samples were evaluated at certain time intervals according to the Safety Protocol in Table 5.
The analysis was done for the samples stored at 21 days.

[5] = ADME/PK profile across tested species; type: in vivo
Text: (§2) GastroPlus modeling predicted dissolution and/or solubility limitations of the free form of Compound A at high doses.

[6] = Solubility and dissolution rate of the free form in biorelevant media; type: physicochemical
Text: as §2

pHmax [1]: about 4.5
Hygroscopicity [2]: non hygroscopic
Maximum water uptake by DVS ([2]; up to 95% RH at 25° C.): less than 0.1%
solubility at 24 h ([3]; 25 °C, aqueous buffer, pH 1.2 to pH 4.7): ≥ 2000 µg/mL
solubility at 24 h ([3]; acetate buffer pH 4.7, aqueous buffer, 25° C., pH 4.7 buffer (acetate)): > 2000 µg/mL
solubility at 24 h ([3]; hydrochloric acid buffer pH 1.2, simulated gastric fluid, 25° C., pH 1.2 buffer (hydrochloric acid)): > 2000 µg/mL
solubility at 24 h ([3]; hydrochloric acid buffer pH 2, simulated gastric fluid, 25° C., pH 2 buffer (hydrochloric acid)): > 2000 µg/mL
solubility at 24 h ([3]; organic solvent or mixture, 25° C., Acetonitrile): > 100000 µg/mL
solubility at 24 h ([3]; organic solvent or mixture, 25° C., Ethanol): > 100000 µg/mL
Solid residues obtained after 24h equilibration ([3]; pH values of 5.4 and above): correspond to the free form
solubility at 24 h ([3]; phosphate buffer pH 6.8, aqueous buffer, 25° C., pH 6.8 buffer (phosphate)): 30 µg/mL
solubility at 24 h ([3]; 25° C., Water): > 2000 µg/mL
solubility at 24 h ([3]; 25° C., pH 2.0 (SGF), simulated gastric fluid): > 2000 µg/mL
solubility at 24 h ([3]; 25° C., pH 5.8 (FeSSIF), fed state simulating intestinal fluid): 210 µg/mL
solubility at 24 h ([3]; 25° C., pH 6.5 (FaSSIF), fasted state simulating intestinal fluid): 90 µg/mL
Disproportionation result (XRPD) ([4]; 50° C./75% RH - 21 days): No free form peak
Disproportionation result (XRPD) ([4]; 60° C./80% RH - 21 days): No free form peak
Disproportionation result (XRPD) ([4]; 70° C./41% RH - 21 days): No free form peak
Disproportionation result (XRPD) ([4]; 80° C./50% RH - 21 days): No free form peak
Compound: FC(F)OC1=CC(C(F)(F)F)=CN2C[C@@]3(CCC(F)(F)c4c3ccnc4Cl)N=C12 [Compound A fumarate, (S)-1′-chloro-8-(difluoromethoxy)-8′,8′-difluoro-6-(trifluoromethyl)-7′,8′-dihydro-3H,6′H-spiro[imidazo[1,2-a]pyridine-2,5′-isoquinoline]]

Clearance [5]: low to very low
Oral bioavailability [5]: good
Compound: FC(F)OC1=CC(C(F)(F)F)=CN2C[C@@]3(CCC(F)(F)c4c3ccnc4Cl)N=C12 [Compound A, (S)-1′-chloro-8-(difluoromethoxy)-8′,8′-difluoro-6-(trifluoromethyl)-7′,8′-dihydro-3H,6′H-spiro[imidazo[1,2-a]pyridine-2,5′-isoquinoline]]

Clearance [5]: low
Oral bioavailability [5]: moderate to high
Solubility [6]: poor
Dissolution rate ([6]; in biorelevant media): slow
Compound: FC(F)OC1=CC(C(F)(F)F)=CN2C[C@@]3(CCC(F)(F)c4c3ccnc4Cl)N=C12 [free form of Compound A, (S)-1′-chloro-8-(difluoromethoxy)-8′,8′-difluoro-6-(trifluoromethyl)-7′,8′-dihydro-3H,6′H-spiro[imidazo[1,2-a]pyridine-2,5′-isoquinoline]]
